The test deals with SARS-CoV-2 3CLpro (Severe acute respiratory syndrome coronavirus 2, UniProt P0DTD1). Nature of the test: biochemical. To be noted: for inhibition at 5 µM: 4 h. The class given is biochemical. Also on record: Replicate_1 / Replicate_2 / mean / mean (LOPAC_screen_w_protease): unit not given here.
Where [1] appears, read: sheet LOPAC_screen_w_protease, primary screen with protease, compound at 5 µM, mean of two replicates.
Setting [2] is: sheet LOPAC_screen_w_protease, primary screen with protease, compound at 5 µM, replicate 1.
[3] abbreviates: sheet LOPAC_screen_w_protease, primary screen with protease, compound at 5 µM, replicate 2.
[4] abbreviates: sheet LOPAC_screen_w_protease, primary screen of LOPAC1280 at 5 µM with protease, mean of the two replicates.
[5] abbreviates: sheet LOPAC_screen_w_protease, primary screen of LOPAC1280 at 5 µM with protease, replicate 1.
The mark [6] stands for this setting: sheet LOPAC_screen_w_protease, primary screen of LOPAC1280 at 5 µM with protease, replicate 2.
The mark [7] stands for this setting: LOPAC1280 primary screen with protease, 5 µM compound, mean of two replicates.
The mark [8] stands for this setting: LOPAC1280 primary screen with protease, 5 µM compound, replicate 1.
Where [9] appears, read: LOPAC1280 primary screen with protease, 5 µM compound, replicate 2.
Where [10] appears, read: sheet LOPAC_screen_w_protease, LOPAC1280 at 5 µM, mean of two replicates, read-out: mean.
The mark [11] stands for this setting: sheet LOPAC_screen_w_protease, LOPAC1280 at 5 µM, replicate 1, read-out: Replicate_1.
[12] abbreviates: sheet LOPAC_screen_w_protease, LOPAC1280 at 5 µM, replicate 2, read-out: Replicate_2.
Where [13] appears, read: sheet LOPAC_screen_w_protease, primary screen with protease, 5 µM, mean of two replicates.
The mark [14] stands for this setting: sheet LOPAC_screen_w_protease, primary screen with protease, 5 µM, replicate 1.
[15] abbreviates: sheet LOPAC_screen_w_protease, primary screen with protease, 5 µM, replicate 2.
The mark [16] stands for this setting: sheet LOPAC_screen_w_protease, LOPAC1280 primary screen at 5 µM, with protease, replicate 1.
The mark [17] stands for this setting: sheet LOPAC_screen_w_protease, LOPAC1280 primary screen at 5 µM, with protease, replicate 2.
Setting [18] is: sheet LOPAC_screen_w_protease, LOPAC1280 primary screen at 5 µM, with protease, mean of the two replicates.
The mark [19] stands for this setting: sheet LOPAC_screen_w_protease, primary screen with protease, mean of two replicates.
Setting [20] is: sheet LOPAC_screen_w_protease, primary screen with protease, replicate 1.
Setting [21] is: sheet LOPAC_screen_w_protease, primary screen with protease, replicate 2.
The mark [22] stands for this setting: sheet LOPAC_screen_w_protease, LOPAC1280 at 5 µM, mean of two replicates.
Setting [23] is: sheet LOPAC_screen_w_protease, LOPAC1280 at 5 µM, replicate 1.
Setting [24] is: sheet LOPAC_screen_w_protease, LOPAC1280 at 5 µM, replicate 2.

Where a name gives a salt, the structure may show the parent alone. Read-outs that look alike come from different tables or passages of the source.

Under setting [1], `C[C@@H](NC(=O)/C(C#N)=C/c1ccc(O)c(O)c1)c1ccccc1` [Tyrphostin AG 527] registered a mean of 2.942. The same compound showed a Replicate_1 under setting [2] of 4.113. This compound also showed a Replicate_2 under setting [3] of 1.771.

As to `N#C/C(=C\c1ccc(O)c(O)c1)C(=O)N1CCc2ccccc21` [Tyrphostin AG 528], under setting [4], the mean is listed as 3.92. Under setting [5], this compound registered a Replicate_1 of 3.707. For the same compound, under setting [6], the Replicate_2 was 4.133.

Regarding `N#C/C(=C\c1ccc(O)c(O)c1)C(=O)NCCCNC(=O)/C(C#N)=C/c1ccc(O)c(O)c1` [Tyrphostin AG 537], the “mean (LOPAC_screen_w_protease)” value under setting [7] is 1.443. In addition, the “Replicate_1 (LOPAC_screen_w_protease)” value under setting [8] is recorded as 1.008. Further, the “Replicate_2 (LOPAC_screen_w_protease)” value under setting [9] is 1.878.

In the case of `N#C/C(=C\c1ccc(O)c(O)c1)C(=O)c1ccc(O)c(O)c1` [Tyrphostin AG 538], under setting [7], the “mean (LOPAC_screen_w_protease)” value was determined as 1.741. Moreover, under setting [8], the “Replicate_1 (LOPAC_screen_w_protease)” value stood at 1.926. Also, under setting [9], the “Replicate_2 (LOPAC_screen_w_protease)” value is 1.555.

For the compound `N#C/C(=C\c1ccc(O)c(O)c1)C(=O)NCCCc1ccccc1` [Tyrphostin AG 555], the mean under setting [4] is recorded as 3.848. This compound registered a Replicate_1 under setting [5] of 4.708. This compound gave a Replicate_2 under setting [6] of 2.988.

With `N#CC(=Cc1ccc(O)c(O)c1)C(=O)NCCc1ccccc1` [Tyrphostin AG 698], the mean under setting [1] is given as 2.9723. For the same compound, under setting [2], the Replicate_1 came to 3.137. Besides, the Replicate_2 under setting [3] stood at 2.808.

`N#CC(=Cc1c[nH]c2ccccc12)C(=O)c1ccc(O)c(O)c1` [Tyrphostin AG 808]: the “mean (LOPAC_screen_w_protease)” value (LOPAC1280 primary screen with protease, 5 µM compound, mean of the two replicates) turned out to be 1.999. The “Replicate_1 (LOPAC_screen_w_protease)” value under setting [8] is 2.979. Besides, under setting [9], the “Replicate_2 (LOPAC_screen_w_protease)” value was 1.0189.

Regarding `CC(C)(C)c1cc(/C=C(\C#N)C(N)=S)cc(C(C)(C)C)c1O` [Tyrphostin AG 879], the inhibition at 5 µM runs as follows: (sheet LOPAC_screen_w_protease, LOPAC1280 primary screen with protease, 5 µM compound, mean of the two replicates, read-out: mean) 5.5%; (sheet LOPAC_screen_w_protease, LOPAC1280 primary screen with protease, 5 µM compound, replicate 1, read-out: Replicate_1) 5.93%; (sheet LOPAC_screen_w_protease, LOPAC1280 primary screen with protease, 5 µM compound, replicate 2, read-out: Replicate_2) 5.07%.

On to `COc1cc2ncnc(Nc3cccc(Cl)c3)c2cc1OC` [Tyrphostin AG 1478], for which the inhibition at 5 µM runs as follows: under setting [10], 1.16%; under setting [11], 1.39%; under setting [12], 0.935%.

Under setting [1], `N#CC(=C(/N)Sc1ccccc1N)/C(C#N)=C(/N)Sc1ccccc1N` [U0126] returned a mean of 2.655. The Replicate_1 under setting [2] came out at 2.394. This compound showed a Replicate_2 under setting [3] of 2.916.

On to `C[C@]12C=CC(=O)C=C1CC[C@@H]1C2=CC[C@]2(C)[C@@H](C(=O)CN3CCN(c4cc(N5CCCC5)nc(N5CCCC5)n4)CC3)CC[C@@H]12.O=C(O)/C=C\C(=O)O` [U-74389G maleate], for which, under setting [13], the mean was -0.1973. Further, the Replicate_1 under setting [14] was -0.4551. For the same compound, the Replicate_2 under setting [15] is on record as 0.0606.

As to `CCCCC/C=C\C[C@@H](O)/C=C/c1cccc(C[C@@H](O)CCCCO)n1` [U-75302], the “mean (LOPAC_screen_w_protease)” value under setting [7] was 1.3528. The “Replicate_1 (LOPAC_screen_w_protease)” value under setting [8] was found to be 0.07831. The “Replicate_2 (LOPAC_screen_w_protease)” value under setting [9] turned out to be 2.627.

Under setting [13], `Cc1c(C)c2c(c(C)c1O)CCC(C)(CN1CCN(c3cc(N4CCCC4)nc(N4CCCC4)n3)CC1)O2.Cl.Cl` (stereo not drawn) [U-83836 dihydrochloride] registered a mean of 0.07046. The same compound gave a Replicate_1 under setting [14] of -0.1864. This compound yielded a Replicate_2 under setting [15] of 0.3273.

In turn, `CCCN(CCC)C1Cc2cc(OC)c(OC)cc2C1.O=C(O)/C=C\C(=O)O` [U-99194A maleate] registered a mean under setting [13] of -0.07283. The compound also showed a Replicate_1 under setting [14] of -1.037. The Replicate_2 under setting [15] stood at 0.891.

On to `CC(C)Oc1cccnc1N(C)C1CCN(Cc2ccccc2)CC1.O=C(O)/C=C\C(=O)O` [U-101958 maleate], for which the mean under setting [13] was found to be 0.02682. Moreover, the Replicate_1 under setting [14] is on record as 1.919. The Replicate_2 under setting [15] is on record as -1.865.

As to `Brc1c(NC2=NCCN2)ccc2nccnc12` [UK 14,304], the “Replicate_1 (LOPAC_screen_w_protease)” value is on record as 1.98, the “Replicate_2 (LOPAC_screen_w_protease)” value is listed as 2.1604 and the “mean (LOPAC_screen_w_protease)” value amounted to 2.07.

Regarding `COc1ccccc1N1CCN(CCCNc2cc(=O)n(C)c(=O)n2C)CC1` [Urapidil hydrochloride], the inhibition at 5 µM was -0.372% (sheet LOPAC_screen_w_protease, primary screen with protease, 5 µM, mean of two replicates, read-out: mean); 0.127% (sheet LOPAC_screen_w_protease, primary screen with protease, 5 µM, replicate 1, read-out: Replicate_1); -0.871% (sheet LOPAC_screen_w_protease, primary screen with protease, 5 µM, replicate 2, read-out: Replicate_2).

`COc1ccccc1N1CCN(CCCNc2c(C)c(=O)n(C)c(=O)n2C)CC1` [Urapidil, 5-Methyl-] showed a mean (sheet LOPAC_screen_w_protease, LOPAC1280 primary screen at 5 µM, with protease, mean of two replicates) of -1.384. This compound returned a Replicate_1 under setting [16] of -1.313. Moreover, the Replicate_2 under setting [17] was -1.455.

`O=c1ccn([C@@H]2O[C@H](COP(=O)([O-])OP(=O)([O-])O)[C@@H](O)[C@H]2O)c(=O)[nH]1.[Na+].[Na+]` [Uridine 5'-diphosphate sodium] showed a mean under setting [13] of -0.3913. The same compound gave a Replicate_1 under setting [14] of -1.155. Under setting [15], the Replicate_2 was determined as 0.3722.

The compound `C[C@H](N)CN1CCc2ccc(Br)cc21.C[C@H](N)CN1CCc2ccc(Br)cc21.O=C(O)/C=C/C(=O)O` [VER-3323 hemifumarate salt] yielded a mean under setting [18] of 0.8173. The compound further yielded a Replicate_1 under setting [16] of 0.78. Under setting [17], this compound returned a Replicate_2 of 0.8545.

The compound `COc1ccccc1NC(=O)Nc1nc(-c2cccnc2)nc2ccccc12` [VUF 5574] came in with a mean under setting [19] of 2.164. The compound also showed a Replicate_1 under setting [20] of 1.496. The Replicate_2 under setting [21] was found to be 2.8319.

With `CCCC(CCC)C(=O)O` [Valproic acid sodium], the inhibition at 5 µM came to 3.18% (sheet LOPAC_screen_w_protease, primary screen of LOPAC1280 at 5 µM with protease, mean of the two replicates, read-out: mean); 2.68% (sheet LOPAC_screen_w_protease, primary screen of LOPAC1280 at 5 µM with protease, replicate 1, read-out: Replicate_1); 3.67% (sheet LOPAC_screen_w_protease, primary screen of LOPAC1280 at 5 µM with protease, replicate 2, read-out: Replicate_2).

Take `CCN(CC)C(=O)c1ccc(O)c(OC)c1` [Vanillic acid diethylamide]: the mean under setting [22] amounted to 0.9703. Under setting [23], this compound yielded a Replicate_1 of 1.198. This compound returned a Replicate_2 under setting [24] of 0.7424.

`CC[C@]1(O)C[C@@H]2CN(CCc3c([nH]c4ccccc34)[C@@](C(=O)OC)(c3cc4c(cc3OC)N(C)[C@H]3[C@@](O)(C(=O)OC)[C@H](OC(C)=O)[C@]5(CC)C=CCN6CC[C@]43[C@@H]65)C2)C1.O=S(=O)(O)O` [Vinblastine sulfate salt] showed a mean under setting [13] of 0.3705. The compound further returned a Replicate_1 under setting [14] of 2.018. In addition, the Replicate_2 under setting [15] was -1.277.

As to `CCOC(=O)C1=C[C@]2(CC)CCCN3CCc4c(n1c1ccccc41)[C@@H]32` [Vinpocetine], the inhibition at 5 µM reads like this: under setting [10], 0.949%; under setting [11], 0.618%; under setting [12], 1.28%.

On to `COc1ccccc1N1CCN(CCN(C(=O)C2CCCCC2)c2ccccn2)CC1.O=C(O)/C=C\C(=O)O` [WAY-100635 maleate], for which the mean under setting [22] is given as 1.0596. The Replicate_1 under setting [23] came to 1.502. For the same compound, the Replicate_2 under setting [24] was found to be 0.6169.

Compound `C[N+](C)(CCCCCC[N+](C)(C)CCCN1C(=O)c2cccc3cccc(c23)C1=O)CCCN1C(=O)c2cccc3cccc(c23)C1=O.[Br-].[Br-]` [WB 64] came in with a mean under setting [18] of 0.6302. This compound also yielded a Replicate_1 under setting [16] of 0.2165. Besides, under setting [17], the Replicate_2 is 1.044.

As to `COc1cccc(OC)c1OCCNCC1COc2ccccc2O1.Cl` (stereo not drawn) [WB-4101 hydrochloride], under setting [7], the “mean (LOPAC_screen_w_protease)” value was found to be 1.343. Besides, under setting [8], the “Replicate_1 (LOPAC_screen_w_protease)” value is on record as 1.824. Besides, under setting [9], the “Replicate_2 (LOPAC_screen_w_protease)” value turned out to be 0.8625.

`C#C[C@]1(O)CC[C@H]2[C@@H]3CCC4=Cc5nc6nc7ccccc7n6cc5C[C@]4(C)[C@H]3CC[C@@]21C` [WIN 62,577] registered a Replicate_1 of -0.8505, a Replicate_2 of 3.428 and a mean of 1.289.

Compound `COC[C@H]1OC(=O)c2coc3c2[C@@]1(C)C1=C(C3=O)[C@@H]2CCC(=O)[C@@]2(C)C[C@H]1OC(C)=O` [Wortmannin from Penicillium funiculosum] displayed a mean under setting [19] of 2.471. The Replicate_1 under setting [20] came out at 2.1754. Besides, under setting [21], the Replicate_2 is 2.767.

These data come from paper PMC7587356, “High-Throughput Screening for Inhibitors of the SARS-CoV-2 Protease Using a FRET-Biosensor” (Molecules, 2020).
